Test results reported in patent US20220313698A1, “MODULATORS OF CYSTIC FIBROSIS TRANSMEMBRANE CONDUCTANCE REGULATOR” (Vertex Pharmaceuticals Incorporated, priority 2019, published 2022).

Target: CFTR-mediated chloride transport (Homo sapiens, UniProt P13569)
Experiment: Corrector Assay A - membrane potential dye assay (enteroid cells)
Conditions: for Corrector Assay A % activity: % of chloride transport of triple combination control (1 μM (14S)-dispiro macrocycle + 3 μM tezacaftor + 300 nM ivacaftor); for EC50: read-out: Corrector Assay A EC50, human intestinal enteroid cells, 18-24 h incubation, acute 10 μM forskolin + 300 nM ivacaftor

Corrector Assay A % activity | EC50 [nM] | SMILES
+++ (+++ is >60%) | < 1000 | CC(C)(C)c1ccc2c(n1)N1C[C@@H](CC[C@H](c3cccc(C#N)n3)Nc3cccc(n3)S(=O)(=O)NC2=O)CC1(C)C [Compound 211, 6-[(14S,17R)-8-tert-Butyl-12,12-dimethyl-2,2,4-trioxo-2λ^6-thia-3,9,11,18,23-pentaazatetracyclo[17.3.1.111,14.05,10]tetracosa-1(22),5,7,9,19(23),20-hexaen-17-yl]pyridine-2-carbonitrile]
++ (++ is 30-60%) | < 1000 | CC(C)(C)c1ccc2c(n1)N1C[C@@H](CCC(C3CCN(c4ncccn4)CC3)Nc3cccc(n3)S(=O)(=O)NC2=O)CC1(C)C (stereo partly drawn) [Compound 218, (14S)-8-tert-butyl-12,12-dimethyl-17-[1-(pyrimidin-2-yl)piperidin-4-yl]-2λ^6-thia-3,9,11,18,23-pentaazatetracyclo[17.3.1.111,14.05,10]tetracosa-1(23),5(10),6,8,19,21-hexaene-2,2,4-trione]
+ (+ is <30%) | > 3000 | COCCN1CCC2(CC1)CC(NC(=O)[C@@H]1CC[C@@H]3CN(c4nc(C(C)(C)C)ccc4C(=O)NS(=O)(=O)c4cccc(n4)N1)C(C)(C)C3)C2 [Compound 221]
+ (+ is <30%) |  | CC(C)(C)c1ccc2c(n1)N1C[C@@H](CC[C@@H](C(=O)NC3CC4(CCNCC4)C3)Nc3cccc(n3)S(=O)(=O)NC2=O)CC1(C)C [Compound 223]
+ (+ is <30%) | 1000 to 3000 | CC(C)(C)OC(=O)N1CCC2(CC1)CC(NC(=O)[C@@H]1CC[C@@H]3CN(c4nc(C(C)(C)C)ccc4C(=O)NS(=O)(=O)c4cccc(n4)N1)C(C)(C)C3)C2 [Compound 227]
++ (++ is 30-60%) | 1000 to 3000 | CN(C)CC(=O)N1CCC(C2CC[C@@H]3CN(c4nc(C(C)(C)C)ccc4C(=O)NS(=O)(=O)c4cccc(n4)N2)C(C)(C)C3)CC1 (stereo partly drawn) [Compound 236, (14S)-8-tert-butyl-17-{1-[2-(dimethylamino)acetyl]piperidin-4-yl}-12,12-dimethyl-2λ^6-thia-3,9,11,18,23-pentaazatetracyclo[17.3.1.111,14.05,10]tetracosa-1(23),5(10),6,8,19,21-hexaene-2,2,4-trione]
++ (++ is 30-60%) | < 1000 | CC(C)(C)c1ccc2c(n1)N1C[C@@H](CCC(C3CCN(CCC(F)(F)F)CC3)Nc3cccc(n3)S(=O)(=O)NC2=O)CC1(C)C (stereo partly drawn) [Compound 238, (14S)-8-tert-butyl-12,12-dimethyl-17-[1-(3,3,3-trifluoropropyl)piperidin-4-yl]-2λ^6-thia-3,9,11,18,23-pentaazatetracyclo[17.3.1.111,14.05,10]tetracosa-1(23),5(10),6,8,19,21-hexaene-2,2,4-trione]
++ (++ is 30-60%) | < 1000 | CC1(C)C[C@@H]2CC[C@H](c3ccccn3)Nc3cccc(n3)S(=O)(=O)NC(=O)c3ccc(Br)nc3N1C2 [Compound 246, (14S,17R)-8-bromo-12,12-dimethyl-17-(pyridin-2-yl)-2λ^6-thia-3,9,11,18,23-pentaazatetracyclo[17.3.1.111,14.05,10]tetracosa-1(22),5,7,9,19(23),20-hexaene-2,2,4-trione]

SMILES | Corrector Assay A % activity | EC50 [nM]
CC(=O)N1CCC(C2CC[C@@H]3CN(c4nc(C(C)(C)C)ccc4C(=O)NS(=O)(=O)c4cccc(n4)N2)C(C)(C)C3)CC1 (stereo partly drawn) [Compound 228, (14S)-17-(1-Acetylpiperidin-4-yl)-8-tert-butyl-12,12-dimethyl-2λ^6-thia-3,9,11,18,23-pentaazatetracyclo[17.3.1.111,14.05,10]tetracosa-1(23),5(10),6,8,19,21-hexaene-2,2,4-trione] | ++ (++ is 30-60%) | < 1000
